Active and inactive are the calls of the source.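 The calls were made as follows: active = at least one rat sex group has a carcinogenic potency value and tumor site recorded; inconclusive = only rat studies were judged inadequate by the national testing program; inactive = no potency or tumor site, with negative rat experiments.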
System: rat chronic carcinogenicity bioassay, TD50
Test: DSSTox (CPDBAS) Carcinogenic Potency Database Summary Rat Bioassay Results
Details: for Potency: stronger effect = lower value
Method in brief: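 The activity score maps log10(1/TD50_Rat_mmol) linearly onto 1–100; actives without a computed TD50, such as mixtures, receive 50. Source data are chronic rat carcinogenicity tests, using the most positive experiment for each sex.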

[1] = TD50_Rat_Note: no positive results, TargetSites_Rat_Female: no positive results
[2] = TD50_Rat_Note: no positive results
[3] = TD50_Rat_Note: TD50 is harmonic mean of more than one positive test, TargetSites_Rat_Female: liver
[4] = TargetSites_Rat_Female: no positive results
[5] = TD50_Rat_Note: no positive results, TargetSites_Rat_BothSexes: no positive results

Clc1cccc(-c2cc(Cl)cc(Cl)c2)c1
Potency (TD50_Rat_Note: TD50_Rat_mmol was not calculated for this mixture, but Activiity Score is assigned value of 50 to indicate active, TargetSites_Rat_Female: liver): 53.9 mg/kg/day

CC(=O)OCc1ccccc1
outcome [1]: inactive; no positive results

O=C1CN=C(c2ccccc2)c2cc(Cl)ccc2N1CC1CC1
outcome [1]: inactive; no positive results

O=C(O)CCCc1ccc(N(CCCl)CCCl)cc1
Potency (TD50_Rat_Note: TD50 is harmonic mean of more than one positive test, TargetSites_Rat_Female: ear Zymbals gland, mammary gland, nervous system): 0.896 mg/kg/day

O=NN1CC=CCC1
Potency (TD50_Rat_Note: TD50 is harmonic mean of more than one positive test, harmonic mean of TD50 includes a value for upper 99% confidence li, TargetSites_Rat_Female: esophagus, liver, stomach, vascular system): 0.0601 mg/kg/day

Oc1ccccc1O
Potency (TD50_Rat_Note: TD50 is harmonic mean of more than one positive test, harmonic mean of TD50 includes a value for upper 99% confidence li, TargetSites_Rat_Female: stomach): 71.5 mg/kg/day

CN=C(NC#N)NCCSCc1nc[nH]c1C
outcome [1]: inactive; no positive results

Nc1ccc(N(CCO)CCO)cc1
outcome [1]: inactive; no positive results

ClCc1ccccc1
outcome [1]: inactive; no positive results

O=NN1CC(=O)NC1=O
Potency (TD50_Rat_Note: TD50 is harmonic mean of more than one positive test, TargetSites_Rat_Female: all tumor bearing animals): 43.8 mg/kg/day

CN[C@H]1CC[C@@H](c2ccc(Cl)c(Cl)c2)c2ccccc21
outcome [1]: inactive

CCCCC/C=C\C/C=C\CCCCCCCC(=O)OC
outcome [2]: inactive; no positive results

CN(C)c1ccc(C(=N)c2ccc(N(C)C)cc2)cc1
Potency: 11 mg/kg/day

NC(=O)N(CCO)N=O
Potency (TD50_Rat_Note: TD50 is harmonic mean of more than one positive test, greater than ten-fold variation among TD50 values for positive res, TargetSites_Rat_Female: hematopoietic system, mammary gland): 0.244 mg/kg/day

CC[N+]([O-])=NC
Potency: 0.0189 mg/kg/day

COc1cc2c(c3oc4cccc(O)c4c(=O)c13)C1C=COC1O2 (configuration not stated)
Potency (TD50_Rat_Note: TD50 is harmonic mean of more than one positive test, greater than ten-fold variation among TD50 values for positive res, TargetSites_Rat_BothSexes: liver): 0.152 mg/kg/day

Cc1cc(C(C)(C)C)c(O)c(C(C)(C)C)c1
outcome [1]: inactive; no positive results

ClC(Cl)Br
Potency (TD50_Rat_Note: TD50 is harmonic mean of more than one positive test, greater than ten-fold variation among TD50 values for positive res, TargetSites_Rat_Female: kidney, large intestine, liver): 72.5 mg/kg/day

BrCCBr
Potency (TD50_Rat_Note: TD50 is harmonic mean of more than one positive test, TargetSites_Rat_Female: liver, lung, mammary gland, nasal cavity, pituitary gland, stomach, vascular system): 1.52 mg/kg/day

Cc1ccc(N)cc1
outcome [2]: inactive; no positive results

ClC(Br)Br
outcome [1]: inactive; no positive results

O=C(c1ccccc1)C(O)c1ccccc1 (configuration not stated)
outcome [1]: inactive; no positive results

CC(C)Oc1ccccc1OC(=O)N(C)N=O
Potency: 0.364 mg/kg/day

FC(F)(Cl)Cl
outcome [1]: inactive; no positive results

O=P1(NCCCl)OCCCN1CCCl (configuration not stated)
Potency (TD50_Rat_Note: positive test results only by intraperitoneal or intravenous injection, TargetSites_Rat_Female: uterus): 0.739 mg/kg/day

CCCCC1C(=O)N(c2ccccc2)N(c2ccccc2)C1=O
Potency (TargetSites_Rat_Female: kidney): 1160 mg/kg/day

CCCCCCCC/C=C\CCCCCCCC(=O)O
outcome [1]: inactive; no positive results

C[C@](N)(Cc1ccc(O)c(O)c1)C(=O)O
outcome [1]: inactive; no positive results

Cc1ccc(N=Nc2c(O)ccc3ccccc23)c([N+](=O)[O-])c1
Potency [3]: 1170 mg/kg/day

Nc1ccc(N=Nc2ccc(-c3ccc(N=Nc4c(S(=O)(=O)O)cc5cc(S(=O)(=O)O)c(N=Nc6ccccc6)c(O)c5c4N)cc3)cc2)c(N)c1
Potency [3]: 1.39 mg/kg/day

CN1C(C(=O)Nc2ccccn2)=C(O)c2ccccc2S1(=O)=O
outcome [2]: inactive; no positive results

Cc1cc(Cc2ccc(N)c(C)c2)ccc1N
Potency [3]: 7.38 mg/kg/day

CCOC(=O)[C@]1(c2ccccc2)CCC=C[C@H]1N(C)C
outcome [1]: inactive; no positive results

C[N+](=O)[O-]
Potency (TargetSites_Rat_Female: mammary gland): 40.4 mg/kg/day

Nc1cc(Cl)c(N)c(Cl)c1
outcome [1]: inactive; no positive results

O=CNNc1nc(-c2ccco2)cs1
outcome [1]: inactive

Oc1c(Cl)c(Cl)c(Cl)c(Cl)c1Cl
outcome [1]: inactive; no positive results | Potency (TargetSites_Rat_Female: liver): 13.1 mg/kg/day | Potency [4]: 59 mg/kg/day

CCOC(=O)C1OC1(C)c1ccccc1 (configuration not stated)
outcome [1]: inactive; no positive results

Nc1ccc(Oc2ccc(N)cc2)cc1
Potency (TD50_Rat_Note: TD50 is harmonic mean of more than one positive test, TargetSites_Rat_Female: liver, thyroid gland): 9.51 mg/kg/day

CCC[CH2][Sn]([CH2]CCC)([O]C(C)=O)[O]C(C)=O
outcome (TD50_Rat_Note: no positive results, TargetSites_Rat_Female: NTP bioassay inadequate): inactive; no positive results

CNNCc1ccc(C(=O)NC(C)C)cc1
Potency (TD50_Rat_Note: positive test results only by intraperitoneal or intravenous injection, TD50 is harmonic mean of more than one positive, TargetSites_Rat_Female: hematopoietic system, mammary gland, nervous system): 0.351 mg/kg/day | Potency (TD50_Rat_Note: positive test results only by intraperitoneal or intravenous injection): 4.01 mg/kg/day

NC(=O)NC1NC(=O)NC1=O (configuration not stated)
outcome [1]: inactive; no positive results

C[C@@H]1CCC[C@H](C)N1CCCC(O)(c1ccccc1)c1ccccn1 (some centres not stated)
outcome [1]: inactive; no positive results

CCCCC(CC)COC(=O)CCCCC(=O)OCC(CC)CCCC (configuration not stated)
outcome [1]: inactive; no positive results

C#CC(OC(N)=O)(c1ccccc1)c1ccc(Cl)cc1 (configuration not stated)
Potency: 8.78 mg/kg/day

Cc1ccc(/C(=C\CN2CCCC2)c2ccccn2)cc1
outcome [1]: inactive; no positive results

COc1cc2c(c3oc(=O)c4c(c13)CCOC4=O)C1C=COC1O2 (configuration not stated)
Potency (TD50_Rat_Note: TD50 is harmonic mean of more than one positive test, TD50_Rat_mmol was not calculated for this mixture, but Activiity S): 0.00299 mg/kg/day

COC(=O)c1ccc(C(=O)OC)cc1
outcome [1]: inactive; no positive results

Nc1c(F)c(N)c(F)c(F)c1F
outcome [2]: inactive; no positive results

O=C(O)c1cc(=O)[nH]c(=O)[nH]1
outcome [2]: inactive; no positive results

[O]=[Cr](=[O])([OH])[O][Cr](=[O])(=[O])[OH]
Potency: 4.64 mg/kg/day

NCCCC(N)(C(=O)O)C(F)F (configuration not stated)
outcome [1]: inactive; no positive results

CC(=O)CN(N=O)C(N)=O
outcome [1]: inactive; no positive results

O=C1C2CC=CCC2C(=O)N1SC(Cl)(Cl)Cl (configuration not stated)
Potency (TD50_Rat_Note: TD50 is harmonic mean of more than one positive test, TargetSites_Rat_Female: uterus): 2080 mg/kg/day

O=S(=O)(O)NC1CCCCC1
outcome [5]: inactive

O=C(OOC(=O)c1ccccc1)c1ccccc1
outcome [5]: inactive

c1ccc(Nc2ccc3ccccc3c2)cc1
outcome [1]: inactive; no positive results

CC(C)C[C@H]1C(=O)N2CCC[C@H]2[C@]2(O)O[C@](NC(=O)[C@@H]3C=C4c5cccc6[nH]c(Br)c(c56)C[C@H]4N(C)C3)(C(C)C)C(=O)N12
Potency (TargetSites_Rat_Female: uterus): 33.7 mg/kg/day

O=S(=O)(c1ccc(Cl)cc1)c1ccc(Cl)cc1
outcome [1]: inactive; no positive results

CCCCCN(N=O)C(N)=O
Potency (TD50_Rat_Note: TD50 is harmonic mean of more than one positive test, TargetSites_Rat_Female: hematopoietic system, lung, mammary gland, stomach, uterus): 0.555 mg/kg/day

C[C@H]1C(=O)O[C@@H]2CCN3CC=C(COC(=O)[C@](C)(O)[C@]1(C)O)[C@H]23
Potency (TD50_Rat_Note: TD50 is harmonic mean of more than one positive test): 0.94 mg/kg/day

OCN(CO)c1nc(N(CO)CO)nc(N(CO)CO)n1
Potency (TargetSites_Rat_Female: kidney, mammary gland): 10.2 mg/kg/day

O=C1OC(O)C(C(Cl)Cl)=C1Cl (configuration not stated)
Potency (TD50_Rat_Note: TD50 is harmonic mean of more than one positive test, TargetSites_Rat_Female: adrenal gland, hematopoietic system, liver, mammary gland, thyroid gland): 0.583 mg/kg/day

CNC[C@H](O)c1ccc(O)c(O)c1
outcome (TD50_Rat_Note: only experiment is NCI/NTP bioassay inadequate, TargetSites_Rat_Female: NTP bioassay inadequate): ntp bioassay inadequate

Nc1cnn([C@@H]2O[C@H](CO)[C@@H](O)[C@H]2O)c(=O)n1
outcome [2]: inactive; no positive results

C=CCOC(=O)c1ccccc1C(=O)OCC=C
outcome [1]: inactive; no positive results

S=C([S-])NCCNC(=S)[S-].[Zn+2]
outcome [1]: inactive; no positive results | Potency (TargetSites_Rat_BothSexes: all tumor bearing animals): 255 mg/kg/day

CN(N=O)c1ccncc1
outcome [1]: inactive

Cc1ccc2cc3c(ccc4ccccc43)c3c2c1CC3
Potency (TD50_Rat_Note: TD50 is harmonic mean of more than one positive test, harmonic mean of TD50 includes a value for upper 99% confidence li, TargetSites_Rat_Female: mammary gland): 0.491 mg/kg/day

Clc1c(Cl)c(Cl)c(Cl)c(Cl)c1Cl
Potency (TD50_Rat_Note: TD50 is harmonic mean of more than one positive test, harmonic mean of TD50 includes a value for upper 99% confidence li, TargetSites_Rat_Female: liver): 3.86 mg/kg/day

N[C@@H](CC(=O)O)C(=O)O
outcome [1]: inactive; no positive results

O=C1O[C@H]([C@@H](O)CO)C(O)=C1O
outcome [1]: inactive; no positive results

OCl
outcome [1]: inactive; no positive results

O=[N+]([O-])c1cc(N(CCO)CCO)ccc1NCCO
outcome [1]: inactive; no positive results

CC(O)CNC(=O)N(N=O)C(C)Cl (configuration not stated)
Potency [4]: 0.124 mg/kg/day

C[N+](C)(C)CCO
outcome [2]: inactive; no positive results

CC1=C(/C=C/C(C)=C/C=C/C(C)=C/C(=O)O)C(C)(C)CCC1
outcome [1]: inactive; no positive results

O=P(OC(CCl)CCl)(OC(CCl)CCl)OC(CCl)CCl
Potency (TD50_Rat_Note: TD50 is harmonic mean of more than one positive test, TargetSites_Rat_Female: kidney, liver): 46.4 mg/kg/day

CCC[N+](=O)[O-]
outcome [1]: inactive; no positive results

O=C(O)c1ccccc1
outcome [2]: inactive; no positive results | outcome [1]: inactive; no positive results

NC1CCCCC1
outcome [1]: inactive; no positive results

C[C@@H]1Cc2c(Cl)cc(C(=O)N[C@@H](Cc3ccccc3)C(=O)O)c(O)c2C(=O)O1
Potency (TD50_Rat_Note: TD50 is harmonic mean of more than one positive test, TargetSites_Rat_Female: kidney, mammary gland): 0.136 mg/kg/day

Reference: PubChem BioAssay AID1208 (EPA DSSTox, 2008)
